Broadly, the Km is the substrate concentration at which the rate is half of its maximum. Usually kcat stands for the maximal rate divided by the concentration of active sites. In general, kcat/KM refers to the second-order rate constant that governs catalysis at low substrate concentration.

Read-outs that look alike come from different tables or passages of the source. Square brackets hold non-standard residues; d marks the D form. Side chains are listed from the residue outwards. Peptide text beside a SMILES is read from it. * marks the point of attachment. 2Abz = Nc1ccccc1C(=O)O; Cbz = O=C(OCc1ccccc1)*; Dap = NC[C@H](N)C(=O)O; X1 = N=C(N)NCCOCC(=O)*; AEEA = NCCOCCOCC(=O)O

Data on four compounds can be found in PMC4783772, “PEGylated substrates of NSP4 protease: A tool to study protease specificity” (Scientific Reports, 2016).

Data set [1] concerns hNSP4. The experiment in a line: Proteolytic cleavage pattern / stability with hNSP4 by HPLC. It counts as biochemical, human. To be noted: hNSP4 14 nM, RP-HPLC; for stability of the cleaved fluorescent fragment with hNSP4: up to 48 h. The procedure:
Figure 4 HPLC analysis of substrate 1 (1.97 μM) incubated with hNSP4 (14 nM) at different time points: 0, 15 min, 24 h and 48 h.
For each sample of diluted substrate (concentrations 1.97 × 10^−6 M), the appropriate amount of enzyme (1.46 × 10^−8 M) was added, and the solution was incubated for 5, 30, and 60 min. The progress of the proteolytic reaction was monitored by RP-HPLC. The individual peaks resulting from the hydrolysis reaction were collected and identified using the mass spectra which were recorded on a Biflex III MALDI TOF mass spectrometer (Bruker Daltonics, Germany) using α-cyano-4-hydroxycinnamic acid as a matrix.

For data set [2], the target named is T1, human NSP4 (Homo sapiens, UniProt Q6UWY2).
T1 construct: made in house; host or cells: Pichia pastoris
The experiment in a line: Determination of kinetic parameters (KM, kcat, kcat/KM) of substrate hydrolysis by NSP4. It counts as biochemical. The conditions noted are these: for kcat/KM: calculated from kcat and KM values. The procedure:
(§1) For the enzymatic studies, we used human NSP4 expressed in a Pichia pastoris expression system as described in ref. [15]. The NSP4 concentration used in the deconvolution of the library was […]. The bovine β-trypsin (Sigma Chem. Co., USA) concentration was determined by spectrophotometric titration with 4-nitrophenyl-4′-guanidinobenzoate (NPGB) at an enzyme concentration oscillating around 10^−6 M. Standardized trypsin solution was used to titrate BPTI (Sigma Chem. Co., USA) which in turn served to determine the solution concentrations of the produced NSP4. The substrate ABZ-Met-Phe-Pro-Arg-ANB-NH2 recently developed in our lab was used. The deconvolution of peptide libraries was carried out by the iterative solution method. The lyophilizates obtained for each sublibrary were dissolved in dimethyl sulfoxide (DMSO) to a final concentration of 5 mg/ml, and then diluted tenfold in an assay buffer. The fluorescence tests were performed using a FluoroStar OMEGA fluorescent microplate reader (BMG, Germany). The excitation and emission wavelengths were 320 nm and 410 nm for the ABZ/ANB. Enzymatic hydrolysis of the peptide was performed in 20 mM Tris-Cl buffer supplemented by 150 mM NaCl (pH 7.4) at 37 °C and continued over 30 min.
Assay conditions for the determination of the Michaelis constants (KM) and catalytic constants (kcat) were as noted above. The specificity constants (kcat/KM) were calculated from kcat and KM values. Measurements were performed with an enzyme concentration of 1.46 × 10^−9 M. Three to five measurements were carried out for each compound (systematic error expressed as a standard deviation never exceeded 20%). The calculated initial hydrolysis rates were used as a measure of the substrate activity of the investigated peptides. All details of kinetic studies and the method of calculating kinetic parameters have been described elsewhere.

Data set [3] deals with T1, human NSP4. The experiment in a line: Iterative deconvolution in solution of library ABZ-X4-X3-X2-Arg-ANB-NH2 against NSP4. Type of data set: biochemical. The conditions noted are these: ABZ-Dap(O2(Cbz))-Dap(Cbz)-X2-Arg-ANB-NH2, 18 individual peptides; 3.4 × 10^−5 M, NSP4 1.46 × 10^−8 M (Figure 3); pH 7.4, 37 °C, 30 min; fluorescence. The procedure:
In order to construct a novel type of internally quenched library, we used different monoprotected heterobifunctional PEG moieties to diversify a library based on a diaminopropionic acid scaffold (Fig. 1 presents the library formula and its chemical components). The library was synthesized using the mix and split method via Fmoc chemistry. The formation of Dap-PEG conjugates was performed on resin via a submonomeric method (one example of DAPEG-based molecule synthesis is presented in Fig. 2). Our goal was to investigate P2, P3, and P4 subsite preferences with a fixed P1 position occupied by an Arg residue. Each peptide in the library was flanked by a C-terminal amide of 5-amino-2-nitrobenozic acid (acceptor of fluorescence) and an N-terminal 2-amino benzoic acid (fluorescence donor) pair which allowed for simultaneous UV and fluorescence monitoring. Screening process was performed using an iterative mode of deconvolution in solution.
Figure 3 The deconvolution of the library (at average concentration 3.4 × 10^−5 M) with general formula ABZ-X4-X3-X2-Arg-ANB-NH2 against NSP4 (1.46 × 10^−8 M).
For the enzymatic studies, we used human NSP4 expressed in a Pichia pastoris expression system as described in ref. [15]. […] The fluorescence tests were performed using a FluoroStar OMEGA fluorescent microplate reader (BMG, Germany). […]

For the next data set, the system named is cathepsin G (CatG). In words: Selectivity: incubation with cathepsin G. It counts as biochemical, human. To be noted: substrate 1.97 μM; CatG 10^−8 M, 8.7 nM (Figure 5A legend); pH 7.4, 37 °C, 30 min. The procedure:
(§2) Figure 5 Incubation of substrate 1 (1.97 μM) with (A) neutrophil serine proteases (cathepsin G, elastase, and proteinase 3) at a concentration of 8.7 nM; (B) set of blood-associated proteases involving cathepsins and kallikreins.
as §1, with “Enzymatic hydrolysis of the peptide was performed in 20 mM Tris-Cl buffer supplemented by 150 mM NaCl (pH 7.4) at 37 °C and continued over 30 min.” left out

For data set [4], the system named is human neutrophil elastase (HNE). The experiment in a line: Selectivity: incubation with neutrophil elastase. Type of data set: biochemical. The conditions noted are these: substrate 1.97 μM; HNE 10^−8 M, 8.7 nM (Figure 5A legend); pH 7.4, 37 °C, 30 min. The procedure:
as §2
as §1, with “Enzymatic hydrolysis of the peptide was performed in 20 mM Tris-Cl buffer supplemented by 150 mM NaCl (pH 7.4) at 37 °C and continued over 30 min.” left out

The test system of a further data set is proteinase 3 (PR3). The experiment in a line: Selectivity: incubation with proteinase 3. It counts as biochemical, human. To be noted: substrate 1.97 μM; PR3 10^−8 M, 8.7 nM (Figure 5A legend); pH 7.4, 37 °C, 30 min. The procedure:
as §2
as §1, with “Enzymatic hydrolysis of the peptide was performed in 20 mM Tris-Cl buffer supplemented by 150 mM NaCl (pH 7.4) at 37 °C and continued over 30 min.” left out

A further data set concerns KLK14. In words: Selectivity: incubation with KLK14. It counts as biochemical, human. To be noted: substrate 1.97 μM; Figure 5B; pH 7.4, 37 °C, 30 min. The procedure:
as §2
as §1, with “Enzymatic hydrolysis of the peptide was performed in 20 mM Tris-Cl buffer supplemented by 150 mM NaCl (pH 7.4) at 37 °C and continued over 30 min.” left out

Data set [5] relates to set of proteases related to blood cells, including cathepsins and kallikreins. In words: Selectivity: set of blood-associated proteases (cathepsins and kallikreins). Type of data set: biochemical. To be noted: substrate 1.97 μM, enzymes 10^−8 M, Figure 5B, pH 7.4, 37 °C, 30 min. The procedure: as §2
as §1, with “Enzymatic hydrolysis of the peptide was performed in 20 mM Tris-Cl buffer supplemented by 150 mM NaCl (pH 7.4) at 37 °C and continued over 30 min.” left out

Data set [6] relates to hNSP4. The experiment in a line: Detection limit of hNSP4 with substrate 1. It counts as biochemical, human. The procedure: The incubation of substrate 1 with decreasing amounts of hNSP4 yielded a visible fluorescence (signal-to-noise ratio of 3:1) at 10^−11 M of the studied enzyme (Fig. S8).
as §1, with “Enzymatic hydrolysis of the peptide was performed in 20 mM Tris-Cl buffer supplemented by 150 mM NaCl (pH 7.4) at 37 °C and continued over 30 min.” left out

The subject of data set [7] is NSP4. The experiment in a line: NSP4-mediated proteolysis of substrate 1 in the selectivity panel. The conditions noted are these: substrate 1 1.97 μM; Figure 5. Type of data set: biochemical, human. The procedure: as §2
as §1, with “Enzymatic hydrolysis of the peptide was performed in 20 mM Tris-Cl buffer supplemented by 150 mM NaCl (pH 7.4) at 37 °C and continued over 30 min.” left out

For data set [8] the following is noted: qualitative statement.
The test system of data set [9] is NSP4. To be noted: cited from earlier work. The text has this:
Table 2 Kinetic parameters of reported artificial substrates of NSP4. | column: kcat [s^−1]; KM [μM]; kcat/KM M^−1 × s^−1

Setting [10] is: 20 mM Tris-Cl, 150 mM NaCl, pH 7.4, 37 °C, NSP4 1.46 × 10^−9 M, fluorescence ex 320 / em 410 nm, three to five measurements, SD never exceeded 20%.

T1 sequence (Q6UWY2 32-283): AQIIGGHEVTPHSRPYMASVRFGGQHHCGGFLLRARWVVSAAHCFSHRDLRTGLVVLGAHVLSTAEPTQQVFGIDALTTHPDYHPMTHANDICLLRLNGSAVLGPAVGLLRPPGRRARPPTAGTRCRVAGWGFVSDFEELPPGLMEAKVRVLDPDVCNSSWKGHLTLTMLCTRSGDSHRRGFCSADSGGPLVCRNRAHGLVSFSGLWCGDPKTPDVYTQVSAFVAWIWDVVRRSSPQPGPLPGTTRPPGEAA

On to `N=C(N)NCCC[C@H](NC(=O)[C@H](CNC(=O)COCCNC(=N)N)NC(=O)[C@H](CNC(=O)OCc1ccccc1)NC(=O)[C@H](CNC(=O)COCCOCCNC(=O)OCc1ccccc1)NC(=O)c1ccccc1N)C(=O)O` [ABZ-Dap(O2(Cbz))-Dap(Cbz)-Dap(GO1)-Arg-OH] (H-[2Abz][Dap]([AEEA-Cbz])[Dap](Cbz)[Dap](X1)R-OH), for which the “stability of the cleaved fluorescent fragment with hNSP4” value with hNSP4 [1] is “no further degraded up to 48 h”; in the data set with hNSP4 [1] (listed as cleaved N-terminal fragment of the peptidomimetic chain), “exceptional proteolytic stability”.
Take “ABZ-Dap(O2(Cbz))-Dap(Cbz)-Dap(GO1)-Arg-ANB-NH2 [substrate 1]”: the Km at human NSP4 [2] (setting [10]) turned out to be 7.6 ± 0.5 µM. The kcat on human NSP4 [2] (setting [10]) was 1 s⁻¹; on human NSP4 [2] (20 mM Tris-Cl, 150 mM NaCl, pH 7.4, 37 °C, NSP4 1.46 × 10^−9 M, fluorescence ex 320 / em 410 nm, three to five measurements, SD never exceeded 20%, listed as ABZ-Dap(O2(Cbz))-Dap(Cbz)-Dap(GO1)-Arg-ANB-NH2), 1.0 ± 0.1 s⁻¹. In addition, the kcat/KM at human NSP4 [2] (pH 7.4, 37 °C, NSP4 1.46 × 10^−9 M) is 130000 M⁻¹ s⁻¹; at human NSP4 [2] (pH 7.4, 37 °C, NSP4 1.46 × 10^−9 M, listed as ABZ-Dap(O2(Cbz))-Dap(Cbz)-Dap(GO1)-Arg-ANB-NH2), 131,579 M^−1 × s^−1; at human NSP4 [2] (pH 7.4, 37 °C, NSP4 1.46 × 10^−9 M, listed as the developed compound) it was “over 1.31 × 10^5 M^−1 × s^−1”. Moreover, on human NSP4 [2] (comparison with literature substrate, Kasperkiewicz et al.[19]), the “specificity (kcat/KM) relative to substrate selected by Kasperkiewicz et al. [19]” value worked out at 4 times higher. In addition, the “proteolysis / fluorescent intensity, peptides modified at X2” value on human NSP4 [3] is “most susceptible for NSP4-mediated proteolysis”. Further, in the data set with cathepsin G (CatG), the “proteolysis by CatG” value is reported as “no visible proteolysis”. In data set [4], the “proteolysis by HNE” value is “no visible proteolysis”. The “proteolysis by PR3” value with proteinase 3 (PR3) was “no visible proteolysis”. In the data set with KLK14, the “degradation by KLK14 compared with NSP4” value was “to a much lesser extend to degradation by KLK14”. The “cleavage by other blood-associated proteases” value in data set [5] is given as “No other proteolytic enzyme at a concentration of 10^−8 M was able to cleave any of the peptide bonds”. For the same compound, in the data set with hNSP4 [6] (NSP4 detection with substrate 1), the “detection limit in words” value is “subnanomolar”. In the data set with hNSP4 [6] (signal-to-noise ratio of 3:1, constant amount of substrate 1, decreasing amounts of hNSP4, Fig. S8), the “detection limit (hNSP4 concentration giving visible fluorescence)” value is reported as 10^−11 M. Also, in the data set with hNSP4 [1] (substrate 1 1.97 μM, 0, 15 min, 24 h, 48 h, MS identification), the “cleavage site by hNSP4” value is “cleavage of the peptide bond located between Arg and ANB-NH2”. In addition, the “susceptibility to NSP4-mediated proteolysis” value with NSP4 [7] is given as “susceptible to NSP4-mediated proteolysis”. Besides, the solubility in water result in data set [8] was “excellent solubility in water”.
Regarding Ac-hCha-Phe(4-guanidine)-Oic-Arg-ACC, in the data set with NSP4 [9] (ref [19]), the Km was 61 ± 9.1 µM, the catalytic constant (kcat) is 2.0 ± 0.5 s⁻¹ and the kcat/KM is on record as 32,786 M^−1 × s^−1.
Consider “MCA-PEG-Ile-Arg-Arg-Ser-Ser-Tyr-Ser-Phe-Lys(Dnp)-Lys”, for which, in the data set on NSP4 [9] (ref [18]), the Km is 13.8 ± 3.3 µM, the kcat was 0.136 ± 0.008 s⁻¹ and the kcat/KM was 10,000 M^−1 × s^−1.
